Reference: the NIST ThermoML archive (doi:10.1021/je300810p)
± gives the expanded uncertainty stated by the source.

Experiments:
[1] = Liquid; for mass density: 101.33 kPa, Pycnometric method
[2] = refractive index (Na D-line) (dimensionless); settings: 101.33 kPa, Liquid, Standard Abbe refractometry

| SMILES | mass density ([1]; 298.15 K) [kg/m3] | vapor or sublimation pressure ([1]; 391.43 K) [kPa] | refractive index ([2]; 298.15 K) | mass density ([1]; 289.15 K) [kg/m3] | vapor or sublimation pressure ([1]; 293.91 K) [kPa] | refractive index ([2]; 293.15 K) | vapor or sublimation pressure ([1]; 351.46 K) [kPa] |
| --- | --- | --- | --- | --- | --- | --- | --- |
| CC(=O)O [acetic acid] | 1049.42 ± 0.45 | 101.33 ± 3.4 | 1.3716 ± 0.0025 | – | – | – | – |
| CC=O [ethanal] | – | – | – | 788.02 ± 0.36 | 101.33 ± 2.6 | 1.3328 ± 0.0025 | – |
| CCO [ethanol] | 784.88 ± 0.36 | – | 1.3592 ± 0.0025 | – | – | – | 101.33 ± 2.6 |
